Results taken from publication PMC7261835, “New Brilliant Blue G Derivative as Pharmacological Tool in Retinal Surgery” (Frontiers in Pharmacology, 2020).

Experiments:
[1] = test system: purinergic ionotropic P2X7 receptor; set-up: method as in Bartlett et al., 2014; conditions: ref Bartlett et al., 2014; cited from earlier work
[2] = Ex vivo model of vitreoretinal surgery, dye quantification in retina by HPLC; set-up: species or system swine; conditions: porcine eye ex vivo, 40 µl of 0.05% PBB formulation, removed after 30 s, after ILM peeling
Text: (§1) Ex vivo model of vitreoretinal surgery has been previously reported for evaluation of indocyanine green ILM staining properties ([Nakamura et al., 2003]). We carried out on swine eyes the same procedure previously reported on primates, with slight modifications. The following formulations have been tested in the ex vivo model of vitreoretinal surgery: Brilliant PeelTM (0.025% Brilliant Blue G BBG; Fluoron, Ulm, Germany); ILM-BlueTM (0.025% Brilliant Blue G; Dutch Ophthalmic Research Center (International) […], Italy); View-ILM® (0.03% methyl-Brilliant Blue […], Ponte San Nicolò-Padova, Italy); PBB® (0.05% Pure benzyl-Brilliant Blue G; Alfa-Instruments, Casoria, Italy). […] The levels of the dye molecules were quantified by means of HPLC analysis. […] The dried residue was reconstituted in 100 μl of mobile phase by vortexing for 120 s, filtered again on 0.45 μm filters, and, finally, 10-20 μl aliquots were injected into the chromatographic apparatus (each sample was analyzed in triplicate). […] BBG, Me-BBG, and PBB® were analyzed using three different isocratic ternary mobile phases consisting of (A) acetonitrile, (B) methanol, and (C) triethylamine 0.3% (v/v) in water (pH adjusted to 3.0 with trifluoroacetic acid) with different proportions (A:B:C) as follows: BBG 49:5:46 (v/v/v); Me-BBG 54:5:41 (v/v/v); PBB® 62:5:33 (v/v/v). […]

[3] = test system: proteins (fibronectin proteolytic fragment 45 kDa, E. coli beta-galactosidase, bovine serum albumin, chicken ovalbumin, equine cytochrome C); experiment: Dye protein affinity assay: SDS-PAGE staining intensity, densitometry; type: binding; conditions: SDS-page protein bands, dyes 0.025% in fixative; compared to BBG and Me-BBG; p < 0.05
Method: In order to have the same dye/protein molar ratio for dye protein affinity assay, a set of molecular weight standards was obtained by mixing 430 nmol of the following proteins: i. fibronectin proteolytic fragment 45 kDa; ii. E. coli beta-galactosidase 116.3 kDa; iii. bovine serum albumin 66.5 kDa; iv. chicken ovalbumin 42.7 kDa; v. equine cytochrome C 12.3 kDa. Polyacrylamide gel electrophoresis was carried out loading the molecular weight standard in a 9% precast gels (Biorad), as triplicates on separate lanes. Gel electrophoresis was carried out at 20V for 60–90 min in denaturing conditions. After runs, each lane was cut and soaked overnight in a different staining solution, consisting of dyes dissolved at 0.025% in gel fixative solution (40% methanol, 20% acetic acid). Thereafter, gel lanes were decolored in the fixative solution without dyes, until the background stain reached the minimum level compared to stained protein bands. Images were collected with a scanner at 300 dpi, 16M colors. Densitometric analysis was done using the software ImageJ ([Rueden et al., 2017]). LogD values (pH 7.4) were calculated in silico using ACD/Labs software (version 11.1 2008, ACD Labs). […]

[4] = Ex vivo model of vitreoretinal surgery, dye quantification in ILM by HPLC; set-up: species or system swine; conditions: porcine eye ex vivo, 40 µl, 30 s
Text: as §1

| Structure (SMILES) | P2X7 receptor antagonism [1] | dye levels in the retina [2] [ng/mg] | Protein binding quantified as staining intensity (% staining, % of control BBG) [3] | dye content in ILM compared to Brilliant Peel formulation (BBG) [4] | fold increase of ILM dye levels compared to Me-BBG (View ILM) formulation ([4]; p < 0.05) [fold] |
| --- | --- | --- | --- | --- | --- |
| CCOc1ccc(Nc2ccc(/C(=C3C=C/C(=[N+](/CC)Cc4cccc(S(=O)(=O)[O-])c4)C=C/3C)c3ccc(N(CC)Cc4cccc(S(=O)(=O)O)c4)cc3C)cc2)cc1 [Entry 1, Brilliant Blue G] | potent selective non-competitive antagonist | – | – | – | – |
| CCOc1ccc(N(Cc2ccccc2)c2ccc(C(=C3C=CC(=[N+](CC)Cc4cccc(S(=O)(=O)[O-])c4)C=C3C)c3ccc(N(CC)Cc4cccc(S(=O)(=O)O)c4)cc3C)cc2)cc1 [Entry 7, pure benzyl-Brilliant Blue G] | – | 52 | higher protein affinity (% staining) compared to BBG and Me-BBG | higher, even though not statistical significant | 6.0 |
